Results published in ChEMBL document CHEMBL5036347, “Design of the naphthyl-diarylpyrimidines as potent non-nucleoside reverse transcriptase inhibitors (NNRTIs) via structure-based extension into the entrance channel” (Eur J Med Chem, 2021).

Legend:
[1] = tested on: Human immunodeficiency virus 1; test: Antiviral activity against HIV1 harboring reverse transcriptase L100I mutant infected in human MT4 cells assessed as protection against virus-induced cytopathic effect incubated for 5 days by MTT assay; type: functional, organism-based; details: Human immunodeficiency virus 1, MT4, 120 h
[2] = Resistance fold, ratio of EC50 for HIV1 harboring reverse transcriptase L100I mutant […] to EC50 for wild type HIV1 […]; type: functional
[3] = tested on: Human immunodeficiency virus 1; test: Antiviral activity against HIV1 harboring reverse transcriptase E138K mutant infected in human MT4 cells assessed as protection against virus-induced cytopathic effect incubated for 5 days by MTT assay; type: functional, organism-based; details: Human immunodeficiency virus 1, MT4, 120 h
[4] = Resistance fold, ratio of EC50 for HIV1 harboring reverse transcriptase K103N mutant […] to EC50 for wild type HIV1 […]; type: functional
[5] = Cytotoxicity against human MT4 cells assessed as reduction in cell viability incubated for 5 days by MTT assay; type: cell-based; details: human, MT4 cells; time 5 day
[6] = Resistance fold, ratio of EC50 for HIV1 harboring reverse transcriptase F227L/V106A double mutant […] to EC50 for wild type HIV1 […]; type: functional
[7] = tested on: Human immunodeficiency virus 1; test: Antiviral activity against HIV1 harboring reverse transcriptase K103N/Y181C double mutant infected in human MT4 cells assessed as protection against virus-induced cytopathic effect incubated for 5 days by MTT assay; type: functional, organism-based; details: Human immunodeficiency virus 1, MT4, 120 h
[8] = tested on: Human immunodeficiency virus 2; test: Anti-HIV activity against HIV2 ROD infected in human MT4 cells assessed as reduction in virus-induced cytopathic effect incubated for 5 days by MTT assay; type: functional, organism-based; details: Human immunodeficiency virus 2, ROD, MT4, 120 h
[9] = Resistance fold, ratio of EC50 for HIV1 harboring reverse transcriptase Y188L mutant […] to EC50 for wild type HIV1 […]; type: functional
[10] = biological target: Human immunodeficiency virus type 1 reverse transcriptase (Human immunodeficiency virus 1, UniProt Q72547); test: Inhibition of wild type HIV1 reverse transcriptase using oligo(dT)16 as primer measured after 40 mins by picogreen-dye based spectrofluorimetric analysis
[11] = Resistance fold, ratio of EC50 for HIV1 harboring reverse transcriptase E138K mutant […] to EC50 for wild type HIV1 […]; type: functional
[12] = Resistance fold, ratio of EC50 for HIV1 harboring reverse transcriptase K103N/Y181C double mutant […] to EC50 for wild type HIV1 […]; type: functional
[13] = tested on: Human immunodeficiency virus 1; test: Antiviral activity against HIV1 harboring reverse transcriptase Y181C mutant infected in human MT4 cells assessed as protection against virus-induced cytopathic effect incubated for 5 days by MTT assay; type: functional, organism-based; details: Human immunodeficiency virus 1, MT4, 120 h
[14] = tested on: Human immunodeficiency virus 1; test: Antiviral activity against HIV1 harboring reverse transcriptase Y188L mutant infected in human MT4 cells assessed as protection against virus-induced cytopathic effect incubated for 5 days by MTT assay; type: functional, organism-based; details: Human immunodeficiency virus 1, MT4, 120 h
[15] = tested on: Human immunodeficiency virus 1; test: Antiviral activity against HIV1 harboring reverse transcriptase F227L/V106A mutant infected in human MT4 cells assessed as protection against virus-induced cytopathic effect incubated for 5 days by MTT assay; type: functional, organism-based; details: Human immunodeficiency virus 1, MT4, 120 h
[16] = tested on: Human immunodeficiency virus 1; test: Antiviral activity against HIV1 harboring reverse transcriptase K103N mutant infected in human MT4 cells assessed as protection against virus-induced cytopathic effect incubated for 5 days by MTT assay; type: functional, organism-based; details: Human immunodeficiency virus 1, MT4, 120 h
[17] = Resistance fold, ratio of EC50 for HIV1 harboring reverse transcriptase Y181C mutant […] to EC50 for wild type HIV1 […]; type: functional
[18] = Selectivity index, ratio of CC50 for cytotoxicity against human MT4 cells to EC50 of Anti-HIV activity against HIV-1 IIIB infected in human MT4; type: toxicity, cell-based; details: read-out: Selectivity Index
[19] = tested on: Human immunodeficiency virus 1; test: Anti-HIV activity against HIV-1 IIIB infected in human MT4 cells assessed as reduction in virus-induced cytopathic effect incubated for 5 days by MTT assay; type: functional, organism-based; details: Human immunodeficiency virus 1, IIIB, MT4, 120 h

SMILES | EC50 [1] [µM] | Ratio EC50 [2] | EC50 [3] [µM] | Ratio EC50 [4] | CC50 at 120 h [5] [µM] | Ratio EC50 [6] | EC50 [7] [µM] | EC50 [8] [µM] | Ratio EC50 [9] | IC50 [10] [µM] | Ratio EC50 [11] | Ratio EC50 [12] | EC50 [13] [µM] | EC50 [14] [µM] | EC50 [15] [µM] | EC50 [16] [µM] | Ratio EC50 [17] | selectivity ratio [18] | EC50 [19] [µM] | also measured
COc1cc2cc(C#N)ccc2c(OC)c1Oc1cc(NCCC2=CCCCC2)nc(Nc2ccc(C#N)cc2)n1 | 16.6 | 50 | 0.53 | 1 | > 125 | 494 | 30 | > 1000 | 445 | 0.28 | 5 | 90 | 4.65 | 148 | 164 | 0.18 | 11 | > 688 | 0.33 | 
COc1cc2cc(C#N)ccc2c(OC)c1Oc1cc(N2CCOCC2)nc(Nc2ccc(C#N)cc2)n1 | 0.52 | 14 | 0.051 | 3 | > 125 | >26525 | 23.9 | > 1000 | 62 | 0.25 | 1 | 634 | 0.29 | 2.34 |  | 0.13 | 8 | > 6510 | 0.038 | IC50 [15]: > 1000 µM
CCCCCC(C)Nc1cc(Oc2c(OC)cc3cc(C#N)ccc3c2OC)nc(Nc2ccc(C#N)cc2)n1 (centres undefined) | 157 | 102 | 2.22 | 1 | > 125 | >649 | > 1000 | > 1000 | >650 | 1.2 | 1 | >649 | 40 | > 1000 | > 1000 | 1.33 | 26 | > 151 | 1.54 | 
COc1cc2cc(C#N)ccc2c(OC)c1Oc1cc(NCC2CCOC2)nc(Nc2ccc(C#N)cc2)n1 (centres undefined) | 0.37 | 22 | 0.047 | 1 | > 125 | 410 | 0.68 | > 1000 | 35 | 0.06 | 2 | 36 | 0.17 | 0.67 | 7.78 | 0.016 | 9 | > 12500 | 0.019 | 
COc1cc2cc(C#N)ccc2c(OC)c1Oc1cc(NC2CCC2)nc(Nc2ccc(C#N)cc2)n1 | 1.02 | 28 | 0.084 | 1 | > 125 | 3981 | 3.13 | > 1000 | 68 | 0.11 | 5 | 86 | 0.33 | 2.47 | 145 |  | 9 | > 7040 | 0.037 | IC50 [16]: 0.044 µM
COc1cc2cc(C#N)ccc2c(OC)c1Oc1cc(NCC2CC2)nc(Nc2ccc(C#N)cc2)n1 | 0.96 | 39 | 0.059 | 1 | > 125 | 3026 | 1.37 | 213 | 58 | 0.09 | 5 | 56 |  | 1.42 | 74.4 | 0.031 | 9 | > 10500 | 0.025 | IC50 [13]: 0.21 µM
